From patent US9169254B2, “Spiroimidazolone derivative” (Chugai Seiyaku Kabushiki Kaisha, priority 2009, dated 2015)

target: T1, human PTH1 receptor (Homo sapiens, UniProt Q03431); experiment: In vitro cAMP signal activity in HKRK-B7 cells (LLC-PK1 cells overexpressing the human PTH1 receptor); type: cell-based; conditions: 0.1 µM
T1 sequence (Q03431 27-593): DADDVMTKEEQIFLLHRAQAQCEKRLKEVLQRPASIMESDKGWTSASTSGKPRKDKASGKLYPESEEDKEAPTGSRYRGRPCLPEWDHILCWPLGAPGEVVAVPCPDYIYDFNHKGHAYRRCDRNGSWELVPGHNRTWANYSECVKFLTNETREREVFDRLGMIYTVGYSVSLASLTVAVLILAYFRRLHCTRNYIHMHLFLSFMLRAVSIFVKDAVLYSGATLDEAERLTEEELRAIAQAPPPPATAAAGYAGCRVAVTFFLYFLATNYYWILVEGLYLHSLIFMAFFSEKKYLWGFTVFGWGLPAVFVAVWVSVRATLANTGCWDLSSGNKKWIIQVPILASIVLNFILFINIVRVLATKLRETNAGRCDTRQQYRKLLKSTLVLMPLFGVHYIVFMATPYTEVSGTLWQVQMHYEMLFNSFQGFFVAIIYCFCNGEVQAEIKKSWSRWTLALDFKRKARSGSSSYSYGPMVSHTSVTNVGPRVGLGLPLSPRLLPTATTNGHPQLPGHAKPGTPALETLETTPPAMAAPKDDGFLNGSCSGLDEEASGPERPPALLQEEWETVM

With `Cc1cc(N(C)C(N)=O)cc(C)c1CCS(=O)(=O)N1CCC2(CC1)N=C(C1CCC([Si](C)(C)C)CC1)NC2=O` (centres unmarked) [Compound 1137, 1-(3,5-Dimethyl-4-{2-[4-oxo-2-(4-trimethylsilanyl-cyclohexyl)-1,3,8-triaza-spiro[4.5]dec-1-ene-8-sulfonyl]-ethyl}-phenyl)-1-methyl-urea] the “cAMP production activity (%)” value was 82%.

same assay, conditions: HKRK-B7 cells; compound at 1×10^−3 M; cAMP produced as percentage of that produced by hPTH(1-34) at 100 nM

Compared with `O=C1NC(c2cccc(OC(F)(F)F)c2)=NC12CCN(S(=O)(=O)CCc1cccc3c1OC(F)(F)O3)CC2` [Compound 307, 8-[2-(2,2-difluoro-benzo[1,3]dioxol-4-yl)-ethanesulfonyl]-2-(3-trifluoromethoxy-phenyl)-1,3,8-triaza-spiro[4.5]dec-1-en-4-one], `O=C1NC(c2cccc(OC(F)(F)F)c2)=NC12CCN(S(=O)(=O)c1cccc(Cl)c1)CC2` [Compound 13, 8-(3-chloro-benzenesulfonyl)-2-(3-trifluoromethoxy-phenyl)-1,3,8-triaza-spiro[4.5]dec-1-en-4-one] is lower in “cAMP production activity (%)” value: 58% for the first, 31% for the second.

Going from `Cc1cc(N(C)C(N)=O)cc(Cl)c1CCS(=O)(=O)N1CCC2(CC1)N=C(C1CCC(C)CC1)NC2=O` (centres unmarked) [Compound 683, 1-(3-Chloro-5-methyl-4-{2-[2-(4-methyl-cyclohexyl)-4-oxo-1,3,8-triaza-spiro[4.5]dec-1-ene-8-sulfonyl]-ethyl}-phenyl)-1-methyl-urea] to `Cc1cc(N(C)C(N)=O)cc(Cl)c1/C=C/S(=O)(=O)N1CCC2(CC1)N=C(C1CCC(C)CC1)NC2=O` (centres unmarked) [Compound 695, 1-(3-Chloro-5-methyl-4-{(E)-2-[2-(4-methyl-cyclohexyl)-4-oxo-1,3,8-triaza-spiro[4.5]dec-1-ene-8-sulfonyl]-vinyl}-phenyl)-1-methyl-urea], the “cAMP production activity (%)” value rises from 74% to 78%.

First: Cc1cc(C(=O)N(C)CC(N)=O)cc(C)c1/C=C/S(=O)(=O)N1CCC2(CC1)N=C(c1cccc(C(F)(F)F)c1)NC2=O [Compound 392, N-carbamoylmethyl-3,5,N-trimethyl-4-{(E)-2-[4-oxo-2-(3-trifluoromethyl-phenyl)-1,3,8-triaza-spiro[4.5]dec-1-ene-8-sulfonyl]-vinyl}-benzamide]
Second: Cc1cc(N(C)C(=O)CN)cc(C)c1/C=C/S(=O)(=O)N1CCC2(CC1)N=C(c1cccc(OC(F)(F)F)c1)NC2=O [Compound 1011, 2-Amino-N-(3,5-dimethyl-4-{(E)-2-[4-oxo-2-(3-trifluoromethoxy-phenyl)-1,3,8-triaza-spiro[4.5]dec-1-ene-8-sulfonyl]-vinyl}-phenyl)-N-methyl-acetamide]
The “cAMP production activity (%)” value of the first is higher: 83% for the first, 17% for the second.

Going from `Cc1cc(N(C)C(N)=O)c(C)cc1CCS(=O)(=O)N1CCC2(CC1)N=C(C1CCC(C)CC1)NC2=O` (centres unmarked) [Compound 680, 1-(2,5-dimethyl-4-{2-[2-(4-methyl-cyclohexyl)-4-oxo-1,3,8-triaza-spiro[4.5]dec-1-ene-8-sulfonyl]-ethyl}-phenyl)-1-methyl-urea] to `CC(=CS(=O)(=O)N1CCC2(CC1)N=C(C1CCC(C)CC1)NC2=O)c1c(C)cc(N(C)C(N)=O)cc1C` (centres unmarked) [Compound 741, 1-(3,5-dimethyl-4-{1-methyl-2-[2-(4-methyl-cyclohexyl)-4-oxo-1,3,8-triaza-spiro[4.5]dec-1-ene-8-sulfonyl]-vinyl}-phenyl)-1-methyl-urea], the “cAMP production activity (%)” value falls from 101% to 91%.

First: Cc1noc(C)c1S(=O)(=O)N1CCC2(CC1)N=C(C1CCCCC1)NC2=O [Compound 59, 2-cyclohexyl-8-(3,5-dimethyl-isoxazole-4-sulfonyl)-1,3,8-triaza-spiro[4.5]dec-1-en-4-one]
Second: CC(=O)Nc1ccc(-c2ccc(S(=O)(=O)N3CCC4(CC3)N=C(C3CCCCC3)NC4=O)s2)c(C)c1 [Compound 332, N-{4-[5-(2-cyclohexyl-4-oxo-1,3,8-triaza-spiro[4.5]dec-1-ene-8-sulfonyl)-thiophen-2-yl]-3-methyl-phenyl}-acetamide]
The “cAMP production activity (%)” value of the first is lower: 56% for the first, 90% for the second.

Compared with `CC(=O)N(CCOCCO)c1ccc(CCS(=O)(=O)N2CCC3(CC2)N=C(C2CCC(CCC(F)(F)F)CC2)NC3=O)c(C)c1` (centres unmarked) [Compound 758, N-[2-(2-hydroxy-ethoxy)-ethyl]-N-[3-methyl-4-(2-{4-oxo-2-[4-(3,3,3-trifluoro-propyl)-cyclohexyl]-1,3,8-triaza-spiro[4.5]dec-1-ene-8-sulfonyl}-ethyl)-phenyl]-acetamide], `CC(=O)Nc1ccc(CCS(=O)(=O)N2CCC3(CC2)N=C(C2CCC(CCCCl)CC2)NC3=O)c(C)c1` (centres unmarked) [Compound 1065, N-[4-(2-{2-[4-(3-chloro-propyl)-cyclohexyl]-4-oxo-1,3,8-triaza-spiro[4.5]dec-1-ene-8-sulfonyl}-ethyl)-3-methyl-phenyl]-acetamide] is lower in “cAMP production activity (%)” value: 98% for the first, 83% for the second.

Compared with `Cc1cc(C(=O)N2CCN(c3ccccn3)CC2)ccc1CCS(=O)(=O)N1CCC2(CC1)N=C(c1cccc(C(F)(F)F)c1)NC2=O` [Compound 361, 8-{2-[2-methyl-4-(4-pyridin-2-yl-piperazine-1-carbonyl)-phenyl]-ethanesulfonyl}-2-(3-trifluoromethyl-phenyl)-1,3,8-triaza-spiro[4.5]dec-1-en-4-one], `Cc1cc(C(=O)N2CCN(CCOCCO)CC2)ccc1CCS(=O)(=O)N1CCC2(CC1)N=C(c1cccc(C(F)(F)F)c1)NC2=O` [Compound 362, 8-[2-(4-{4-[2-(2-hydroxy-ethoxy)-ethyl]-piperazine-1-carbonyl}-2-methyl-phenyl)-ethanesulfonyl]-2-(3-trifluoromethyl-phenyl)-1,3,8-triaza-spiro[4.5]dec-1-en-4-one] is higher in “cAMP production activity (%)” value: 82% for the first, 97% for the second.

First: Cc1cc(CN2C(=O)CCC2=O)cc(C)c1/C=C/S(=O)(=O)N1CCC2(CC1)N=C(C1CCC(C)CC1)NC2=O (centres unmarked) [Compound 521, 1-(3,5-dimethyl-4-{(E)-2-[2-(4-methyl-cyclohexyl)-4-oxo-1,3,8-triaza-spiro[4.5]dec-1-ene-8-sulfonyl]-vinyl}-benzyl)-pyrrolidine-2,5-dione]
Second: Cc1cc(N2CCCCC2=O)cc(C)c1/C=C/S(=O)(=O)N1CCC2(CC1)N=C(C1CCC(C)CC1)NC2=O (centres unmarked) [Compound 516, 8-{(E)-2-[2,6-dimethyl-4-(2-oxo-piperidin-1-yl)-phenyl]-ethenesulfonyl}-2-(4-methyl-cyclohexyl)-1,3,8-triaza-spiro[4.5]dec-1-en-4-one]
The “cAMP production activity (%)” value of the first is lower: 55% for the first, 73% for the second.

First: Cc1cc(C(=O)N2CCC(C)(O)CC2)cc(C)c1/C=C/S(=O)(=O)N1CCC2(CC1)N=C(c1ccc(OCC(F)(F)C(F)F)c(C(F)(F)F)c1)NC2=O [Compound 1199, 8-{(E)-2-[4-(4-hydroxy-4-methyl-piperidine-1-carbonyl)-2,6-dimethyl-phenyl]-ethenesulfonyl}-2-[4-(2,2,3,3-tetrafluoro-propoxy)-3-trifluoromethyl-phenyl]-1,3,8-triaza-spiro[4.5]dec-1-en-4-one]
Second: [2H]C([2H])([2H])C([2H])([2H])C([2H])([2H])C([2H])([2H])Oc1cc(C2=NC3(CCN(S(=O)(=O)/C=C/c4c(C)cc(C(=O)N5CCC(C)(O)CC5)cc4C)CC3)C(=O)N2)ccc1Cl [Compound 1231, 2-(3-[1,1,2,2,3,3,4,4,4-^2H9]butoxy-4-chloro-phenyl)-8-{(E)-2-[4-(4-hydroxy-4-methyl-piperidine-1-carbonyl)-2,6-dimethyl-phenyl]-ethenesulfonyl}-1,3,8-triaza-spiro[4.5]dec-1-en-4-one]
The “cAMP production activity (%)” value of the first is lower: 77% for the first, 88% for the second.

Going from `CC1CCCCC1C1=NC2(CCN(S(=O)(=O)c3cccc(Cl)c3)CC2)C(=O)N1` (centres unmarked) [Compound 20, 8-(3-chloro-benzenesulfonyl)-2-(2-methyl-cyclohexyl)-1,3,8-triaza-spiro[4.5]dec-1-en-4-one] to `Cc1cc(N2CCOC2=O)ccc1/C=C/S(=O)(=O)N1CCC2(CC1)N=C(C1CCC(C)CC1)NC2=O` (centres unmarked) [Compound 513, 2-(4-methyl-cyclohexyl)-8-{(E)-2-[2-methyl-4-(2-oxo-oxazolidin-3-yl)-phenyl]-ethenesulfonyl}-1,3,8-triaza-spiro[4.5]dec-1-en-4-one], the “cAMP production activity (%)” value falls from 38% to 33%.

First: Cc1cc(/C=C/S(=O)(=O)N2CCC3(CC2)N=C(C2CCC(C)CC2)NC3=O)cc(C)c1N1C(=O)CNC1=O (centres unmarked) [Compound 583, 3-(2,6-dimethyl-4-{(E)-2-[2-(4-methyl-cyclohexyl)-4-oxo-1,3,8-triaza-spiro[4.5]dec-1-ene-8-sulfonyl]-vinyl}-phenyl)-imidazolidine-2,4-dione]
Second: CCCC[C@H]1CC[C@H](C2=NC3(CCN(S(=O)(=O)/C=C/c4c(C)cc(N(CC5(C)COC5)C(C)=O)cc4C)CC3)C(=O)N2)CC1 [Compound 632, N-(4-{(E)-2-[2-(4-butyl-cyclohexyl)-4-oxo-1,3,8-triaza-spiro[4.5]dec-1-ene-8-sulfonyl]-vinyl}-3,5-dimethyl-phenyl)-N-(3-methyl-oxetan-3-ylmethyl)-acetamide]
The “cAMP production activity (%)” value of the first is higher: 85% for the first, 51% for the second.
